According to patent US20210268450A1, “COMPOSITION USEFUL FOR PRODUCTION OF ACIDIC GAS SEPARATION MEMBRANE” (SUMITOMO CHEMICAL COMPANY, LIMITED, priority 2018, published 2021):

Assay: acid dissociation constant in a 25° C. aqueous solution (titration method)
Type: physicochemical
Details: for acid dissociation constant in a 25° C. aqueous solution 1: first constant; for acid dissociation constant 2: second constant
Description: This acid dissociation constant is a value as measured by a known titration method based on the definition of Bronsted (Shinpan Bunseki Kagaku Jikken, Nihon Bunseki Kagakukai Hokkaido Shibu ed., pp. 219 to 237).

Structure (SMILES) | acid dissociation constant in a 25° C. aqueous solution 1 | acid dissociation constant 2 | acid dissociation constant 3 (third constant) | acid dissociation constant in a 25° C. aqueous solution (single constant)
Oc1cc(O)cc(O)c1 [Weakly acidic organic compound 2, phloroglucinol] | 8.0 | 9.2 | 14.0 | –
Oc1cccc(O)c1O [Weakly acidic organic compound 5, pyrogallol] | 9.0 | 11.6 | – | –
Oc1cccc(O)c1 [Weakly acidic organic compound 1, resorcinol] | 9.3 | 9.8 | – | –
Oc1ccccc1O [Weakly acidic organic compound 6, catechol] | 9.1 | 12.1 | – | –
CS(=O)(=O)Nc1ccccc1 [Weakly acidic organic compound 4, N-phenylmethanesulfonamide] | – | – | – | 12.9
